Laboratory results: US11464782B2, “Method of treating pain or interstitial cystitis using indole compound” (Japan Tobacco Inc., priority 2018, dated 2022)
Where two headings read alike, the source gives them in different places.

Test: Trough plasma concentrations of Compound A in the human clinical study
Type: in vivo
Conditions: for concentration at 2 week / concentration at 4 week / concentration at 8 week / concentration at 12 week: human, plasma, oral, human plasma
Method: Compound A was evaluated in a multicenter, randomized, double-blind, placebo-controlled, parallel-group study in subjects with active rheumatoid arthritis. Subjects were randomized to receive orally placebo or an amount of monohydrochloride Compound A sufficient to provide 50 mg, 100 mg, 150 mg, or 200 mg of free form, once daily for 12 weeks.
In the human clinical study described in Example 3, blood samples were collected from subjects prior to dosing at weeks 2, 4, 8, and 12 for the quantification of plasma Compound A levels.

In the case of `C[C@@H](C(=O)N(C)c1ccc2cc(-c3n[nH]c4c3CCC(C)(C)C4)[nH]c2c1)N1CCOCC1` [Compound A, N-[2-(6,6-dimethyl-4,5,6,7-tetrahydro-1H-indazol-3-yl)-1H-indol-6-yl]-N-methyl-(2S)-2-(morpholin-4-yl)propanamide], the “Trough concentration, mean ratio relative to Compound A 50 mg QD at the same visit” value (50 mg QD, 2 week) is reported as 1.00, the “Trough concentration, mean ratio relative to Compound A 50 mg QD at the same visit” value (50 mg QD, 4 week) is reported as 1.00 and the “Trough concentration, mean ratio relative to Compound A 50 mg QD at the same visit” value (50 mg QD, 8 week) is reported as 1.00. The “Trough concentration, mean ratio relative to Compound A 50 mg QD at the same visit” value (50 mg QD, 12 week) was 1.00, the “dose dependence and maintenance of mean trough concentrations” value (50 mg to 200 mg once daily, weeks 2-12) was “Mean trough concentrations increased as dose increased from 50 mg to 200 mg and trough concentrations were maintained throughout the study” and the “Trough concentration, mean ratio relative to Compound A 50 mg QD at the same visit” value (100 mg QD, 2 week) was 1.52. For the same compound, the “Trough concentration, mean ratio relative to Compound A 50 mg QD at the same visit” value (100 mg QD, 4 week) was 1.60, the “Trough concentration, mean ratio relative to Compound A 50 mg QD at the same visit” value (100 mg QD, 8 week) was 1.77 and the “Trough concentration, mean ratio relative to Compound A 50 mg QD at the same visit” value (100 mg QD, 12 week) was 1.50. For the same compound, the “Trough concentration, mean ratio relative to Compound A 50 mg QD at the same visit” value (150 mg QD, 2 week) was 2.51, the “Trough concentration, mean ratio relative to Compound A 50 mg QD at the same visit” value (150 mg QD, 4 week) was 2.28 and the “Trough concentration, mean ratio relative to Compound A 50 mg QD at the same visit” value (150 mg QD, 8 week) was 2.10. For the same compound, the “Trough concentration, mean ratio relative to Compound A 50 mg QD at the same visit” value (150 mg QD, 12 week) was 2.63, the “Trough concentration, mean ratio relative to Compound A 50 mg QD at the same visit” value (200 mg QD, 2 week) was 3.89 and the “Trough concentration, mean ratio relative to Compound A 50 mg QD at the same visit” value (200 mg QD, 4 week) was 3.33. The “Trough concentration, mean ratio relative to Compound A 50 mg QD at the same visit” value (200 mg QD, 8 week) was 3.11, the “Trough concentration, mean ratio relative to Compound A 50 mg QD at the same visit” value (200 mg QD, 12 week) was 2.98 and the concentration at 2 week (50 mg, 50 mg QD, 2 week, BLQ (<2.00 ng/mL) set to 0, read-out: Trough Plasma Concentrations, Min-Max) was 0 to 387 ng/mL. It also gave a concentration at 2 week (50 mg, 50 mg QD, 2 week, read-out: Trough Plasma Concentrations, Mean (SD)) of 134 ng/mL, a concentration at 2 week (50 mg, 50 mg QD, 2 week, read-out: Trough Plasma Concentrations, Median) of 118 ng/mL and a concentration at 4 week (50 mg, 50 mg QD, 4 week, BLQ (<2.00 ng/mL) set to 0, read-out: Trough Plasma Concentrations, Min-Max) of 0 to 356 ng/mL. For the same compound, the concentration at 4 week (50 mg, 50 mg QD, 4 week, read-out: Trough Plasma Concentrations, Mean (SD)) was 135 ng/mL, the concentration at 4 week (50 mg, 50 mg QD, 4 week, read-out: Trough Plasma Concentrations, Median) was 119 ng/mL and the concentration at 8 week (50 mg, 50 mg QD, 8 week, BLQ (<2.00 ng/mL) set to 0, read-out: Trough Plasma Concentrations, Min-Max) was 0 to 436 ng/mL. For the same compound, the concentration at 8 week (50 mg, 50 mg QD, 8 week, read-out: Trough Plasma Concentrations, Mean (SD)) was 129 ng/mL, the concentration at 8 week (50 mg, 50 mg QD, 8 week, read-out: Trough Plasma Concentrations, Median) was 108 ng/mL and the concentration at 12 week (50 mg, 50 mg QD, 12 week, BLQ (<2.00 ng/mL) set to 0, read-out: Trough Plasma Concentrations, Min-Max) was 0 to 531 ng/mL. For the same compound, the concentration at 12 week (50 mg, 50 mg QD, 12 week, read-out: Trough Plasma Concentrations, Mean (SD)) was 119 ng/mL, the concentration at 12 week (50 mg, 50 mg QD, 12 week, read-out: Trough Plasma Concentrations, Median) was 100 ng/mL and the concentration at 2 week (100 mg, 100 mg QD, 2 week, BLQ (<2.00 ng/mL) set to 0, read-out: Trough Plasma Concentrations, Min-Max) was 0 to 825 ng/mL. It also gave a concentration at 2 week (100 mg, 100 mg QD, 2 week, read-out: Trough Plasma Concentrations, Mean (SD)) of 204 ng/mL, a concentration at 2 week (100 mg, 100 mg QD, 2 week, read-out: Trough Plasma Concentrations, Median) of 191 ng/mL and a concentration at 4 week (100 mg, 100 mg QD, 4 week, BLQ (<2.00 ng/mL) set to 0, read-out: Trough Plasma Concentrations, Min-Max) of 0 to 650 ng/mL. The concentration at 4 week (100 mg, 100 mg QD, 4 week, read-out: Trough Plasma Concentrations, Mean (SD)) was 216 ng/mL, the concentration at 4 week (100 mg, 100 mg QD, 4 week, read-out: Trough Plasma Concentrations, Median) was 215 ng/mL and the concentration at 8 week (100 mg, 100 mg QD, 8 week, BLQ (<2.00 ng/mL) set to 0, read-out: Trough Plasma Concentrations, Min-Max) was 0 to 785 ng/mL. For the same compound, the concentration at 8 week (100 mg, 100 mg QD, 8 week, read-out: Trough Plasma Concentrations, Mean (SD)) was 228 ng/mL.
